For four compounds, mortality results are on record in patent US10716306B2, “N-alkylsulfonyl indoline compound, agricultural and horticultural insecticide comprising the compound, and method for using the insecticide” (Nihon Nohyaku Co., Ltd., priority 2016, dated 2020).

In one experiment the test system is Plutella xylostella. The experiment can be described thus: Insecticidal test on Plutella xylostella. Type of experiment: in vivo. To be noted: 144 h, Chinese cabbage seedlings with laid eggs dipped about 30 seconds, 25° C., 6 days after the dip treatment, read-out: insecticidal efficacy (corrected mortality rate). The source says:
Insecticidal Test on Plutella xylostella
Adults of Plutella xylostella were released onto Chinese cabbage seedlings and allowed to lay eggs thereon. At 2 days after the release of the adults, the Chinese cabbage seedlings with laid eggs were dipped for about 30 seconds in agrochemical dispersions diluted to 500 ppm, each of which contained a different kind of indoline compound represented by the general formula (1) of the present invention as an active ingredient. After air-dried, the seedlings were kept in a thermostatic chamber at 25° C. At 6 days after the dip treatment, the number of hatched larvae per plot was counted, the mortality rate was calculated according to the formula shown below, and the insecticidal efficacy was evaluated according to the criteria of Test Example 2. This test was conducted in triplicate using 10 adults of Plutella xylostella per plot. Corrected mortality rate (%)=100×(Number of hatched larvae in a non-treatment plot−Number of hatched larvae in a treatment plot)/Number of hatched larvae in a non-treatment plot [Math. 3]

The subject of a further experiment is Laodelphax striatellus. Kind of experiment: Insecticidal test on Laodelphax striatellus. The experiment is classed as in vivo. The conditions noted are these: 192 h, rice seedlings dipped 30 seconds, ten 3rd-instar larvae, 8 days after the inoculation, read-out: insecticidal efficacy (corrected mortality rate). The source says: Insecticidal Test on Laodelphax striatellus
The condensed heterocyclic compounds represented by the general formula (1) of the present invention or salts thereof were separately dispersed in water and diluted to 500 ppm. Rice plant seedlings (variety: Nihonbare) were dipped in the agrochemical dispersions for 30 seconds. After air-dried, each seedling was put into a separate glass test tube and inoculated with ten 3rd-instar larvae of Laodelphax striatellus, and then the glass test tubes were capped with cotton plugs. At 8 days after the inoculation, the numbers of surviving larvae and dead larvae were counted, the corrected mortality rate was calculated according to the formula shown below, and the insecticidal efficacy was evaluated according to the criteria shown below. Corrected mortality rate (%)=100×(Survival rate in a non-treatment plot−Survival rate in a treatment plot)/Survival rate in a non-treatment plot [Math. 2] Corrected Mortality Rate A: the corrected mortality rate is 100%. B: the corrected mortality rate is 90 to 99%. C: the corrected mortality rate is 80 to 89%. D: the corrected mortality rate is 50 to 79%.

Turning to `CCS(=O)(=O)N1c2ccc(C3CC3)cc2CC1c1nc2cc(SC(F)(F)F)ccc2o1` (centres unmarked) [Compound 3-19, 2-(1-ethylsulfonyl-5-cyclopropyl-indolin-2-yl)-5-trifluoromethyl-thiobenzo[d]oxazole], the mortality at 500 ppm in the experiment on Plutella xylostella and in the experiment on Laodelphax striatellus was 100% each time.
On to `CCS(=O)(=O)N1c2ccc(I)cc2CC1c1nc2cc(SC(F)(F)F)ccc2o1` (centres unmarked) [Compound 3-5, 2-(1-ethylsulfonyl-5-iodoindolin-2-yl)-5-trifluoromethyl-thiobenzo[d]oxazole], for which the mortality at 500 ppm in the experiment on Plutella xylostella and in the experiment with Laodelphax striatellus was 100% in each case.
On to `CCS(=O)(=O)N1c2ccccc2CC1c1nc2cc(C(F)(F)F)cnc2n1C` (centres unmarked) [Compound 2-1, 2-(1-ethylsulfonyl-indolin-2-yl)-3-methyl-6-trifluoromethyl-3H-imidazo[4,5-b]pyridine], for which the mortality at 500 ppm with Plutella xylostella and in the experiment on Laodelphax striatellus was 100% in each case.
Regarding `CCS(=O)(=O)N1c2ccccc2CC1c1nc2cc(SC(F)(F)F)ccc2o1` (centres unmarked) [Compound 3-1, 2-(1-ethylsulfonyl-indolin-2-yl)-5-trifluoromethyl-thiobenzo[d]oxazole], the mortality at 500 ppm in the experiment with Plutella xylostella and with Laodelphax striatellus was 100% each time.
